Assay results reported in US7994365B2, “Basic acetophenones as inhibitors of NO-synthases” (Christian-Albrechts-Universitaet Zu Kiel, priority 2006, dated 2011).
Counter-ions that a name gives are not always drawn.

Target: T1, bNOS (Homo sapiens, UniProt P29475)
T1 construct: purchased Axxora GmbH
Experiment: Griess assay: NO-synthase converts L-arginine to L-citrullin and NO, activity measured by nitrite formation
Assay type: biochemical
Conditions: maximum inhibition reached; recombinant human isoenzyme, 30 min at 37° C., controls without inhibitor = 100%
Method: Although the compound is known from the literature Niwa, H., 1957, Tohoku Yakka Daigaku, 4, 69-78), as yet no NOS-inhibiting action has been described.
In both FIGS. 1 and 2 the bNOS activity is measured by means of nitrite formation. Nitrite is the end product of nitrogen monoxide in oxygen-containing, aqueous solution. Control incubations with all the cofactors, but without inhibitor addition, were 100% established. These are mean values +/− standard deviation of three incubations, in each case measured twice.
The incubations of the synthesized substances with the NO-synthases were carried out as follows: […]
Following preparation, the batches were incubated for 20 min (iNOS and eNOS) or 30 min (bNOS) in the shaking water bath at 37° C. […] After incubating for […] at room temperature, the solutions were measured at a wavelength of 543 nm and the indicated non-enzyme-containing sample was used as the blank reading. […] The nitrite can be quantitatively determined by reaction with sulphanilamide and naphthyl ethylene diamine in an acid medium. This leads to an azo dye, which can be measured spectrophotometrically. […] The relative nitrite formations were determined for the control batches containing no inhibitors. […]

T1 sequence (P29475 whole entry): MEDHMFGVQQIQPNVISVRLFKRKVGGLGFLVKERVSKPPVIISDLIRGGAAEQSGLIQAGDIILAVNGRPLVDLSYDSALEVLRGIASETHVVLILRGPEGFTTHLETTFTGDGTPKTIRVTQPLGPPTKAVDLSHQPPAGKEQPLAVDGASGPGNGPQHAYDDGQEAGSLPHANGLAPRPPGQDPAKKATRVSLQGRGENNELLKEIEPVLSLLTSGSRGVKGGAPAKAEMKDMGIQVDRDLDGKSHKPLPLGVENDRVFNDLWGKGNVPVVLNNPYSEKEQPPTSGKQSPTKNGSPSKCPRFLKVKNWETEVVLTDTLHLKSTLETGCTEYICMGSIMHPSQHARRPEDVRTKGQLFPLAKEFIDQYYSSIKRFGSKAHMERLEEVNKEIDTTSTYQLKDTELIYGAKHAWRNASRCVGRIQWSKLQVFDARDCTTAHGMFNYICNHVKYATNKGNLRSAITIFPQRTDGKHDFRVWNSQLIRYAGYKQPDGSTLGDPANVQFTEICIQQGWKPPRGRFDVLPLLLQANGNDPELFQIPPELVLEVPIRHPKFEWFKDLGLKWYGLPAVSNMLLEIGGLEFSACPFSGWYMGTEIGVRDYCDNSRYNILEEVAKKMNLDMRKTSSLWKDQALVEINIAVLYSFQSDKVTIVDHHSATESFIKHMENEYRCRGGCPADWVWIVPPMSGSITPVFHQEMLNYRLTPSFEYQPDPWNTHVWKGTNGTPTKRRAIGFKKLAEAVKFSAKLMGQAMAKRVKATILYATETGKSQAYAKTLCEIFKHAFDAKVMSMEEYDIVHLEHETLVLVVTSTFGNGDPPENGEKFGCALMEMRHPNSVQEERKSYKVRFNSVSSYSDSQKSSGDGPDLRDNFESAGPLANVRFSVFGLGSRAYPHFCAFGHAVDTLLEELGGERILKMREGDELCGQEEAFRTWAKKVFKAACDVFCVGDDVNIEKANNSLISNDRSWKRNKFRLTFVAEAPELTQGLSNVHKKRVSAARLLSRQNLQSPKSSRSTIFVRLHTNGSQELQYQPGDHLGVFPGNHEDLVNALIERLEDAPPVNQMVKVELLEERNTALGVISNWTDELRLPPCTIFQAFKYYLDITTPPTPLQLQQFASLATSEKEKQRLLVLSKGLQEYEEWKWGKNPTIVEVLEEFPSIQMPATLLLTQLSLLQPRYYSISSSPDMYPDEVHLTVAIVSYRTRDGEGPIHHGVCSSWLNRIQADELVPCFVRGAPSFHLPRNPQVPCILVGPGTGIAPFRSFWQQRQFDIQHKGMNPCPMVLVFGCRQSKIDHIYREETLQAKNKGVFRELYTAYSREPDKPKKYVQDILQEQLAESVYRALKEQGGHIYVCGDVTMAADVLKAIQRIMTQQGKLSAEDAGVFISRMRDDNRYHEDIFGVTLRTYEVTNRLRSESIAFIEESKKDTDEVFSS

Row | Compound | concentration-dependent inhibition of bNOS
1 | CN(C)CCC(=O)c1ccc(-c2ccc(Br)cc2)cc1 [4′-(4-bromophenyl)-3-dimethylaminopropiophenone hydrochloride] | up to 88%
2 | CN(C)CCCC(=O)c1ccc(-c2ccc(Br)cc2)cc1 [4′-(4-bromophenyl)-4-dimethylaminobutyrophenone hydrochloride] | up to 99%
